Residue numbers refer to the chain shown, from its start. Where no end group is shown, it is not given here.
Key:
Assay in all cases: Homologous whole cell competition binding
Conditions in all cases: homologous competition of 125I-sCT(8-32), whole cells, mean ± S.E.M., SEM
hCTR D373A = target: T1, hCTR D373A (Homo sapiens, UniProt P30988, D373A)
T1 construct: c-Myc (N); expressed in transfected cells
T1 sequence (P30988 25-474 D373A): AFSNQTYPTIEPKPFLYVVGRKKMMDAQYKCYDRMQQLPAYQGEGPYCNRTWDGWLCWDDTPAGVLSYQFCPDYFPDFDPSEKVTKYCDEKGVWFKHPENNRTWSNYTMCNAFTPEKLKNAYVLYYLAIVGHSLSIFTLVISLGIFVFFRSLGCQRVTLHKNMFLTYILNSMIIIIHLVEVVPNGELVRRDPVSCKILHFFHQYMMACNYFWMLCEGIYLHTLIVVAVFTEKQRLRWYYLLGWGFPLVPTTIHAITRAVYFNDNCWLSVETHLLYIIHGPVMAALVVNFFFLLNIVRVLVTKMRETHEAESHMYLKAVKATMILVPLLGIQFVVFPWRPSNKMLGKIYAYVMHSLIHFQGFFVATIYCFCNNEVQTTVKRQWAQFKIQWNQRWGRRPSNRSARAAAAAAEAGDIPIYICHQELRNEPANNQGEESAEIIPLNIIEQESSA
How it was run: (§1)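 Values are pKi, derived from IC50 of unlabelled sCT(8-32) displacing ^125I-sCT(8-32) (25–100 pM) from whole cells after overnight incubation at 4 °C. Specific binding was scaled between tracer-only total and 1 μM cold-peptide background.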

hCTR F356A = target: T2, hCTR F356A (Homo sapiens, UniProt P30988, F356A)
T2 construct: c-Myc (N); expressed in transfected cells
T2 sequence (P30988 25-474 F356A): T1 sequence (P30988 25-474 D373A) with F332A, A349D
How it was run: as §1

hCTR L368A = target: T3, hCTR L368A (Homo sapiens, UniProt P30988, L368A)
T3 construct: c-Myc (N); expressed in transfected cells
T3 sequence (P30988 25-474 L368A): T1 sequence (P30988 25-474 D373A) with L344A, A349D
How it was run: as §1

hCTR V375A = target: T4, hCTR V375A (Homo sapiens, UniProt P30988, V375A)
T4 construct: c-Myc (N); expressed in transfected cells
T4 sequence (P30988 25-474 V375A): T1 sequence (P30988 25-474 D373A) with A349D, V351A
How it was run: as §1

## VLGKLSQELHKLQTYPRTNTGSGTP-NH2 [sCT(8-32)]
hCTR D373A
  Ki: 0.525 nM
hCTR F356A
  Ki: 0.141 nM
hCTR L368A
  Ki: 0.209 nM
hCTR V375A
  Ki: 0.191 nM
